Earlier results in patent US10487297B2, “Environmentally preferred antimicrobial compositions” (CHEMLINK LABORATORIES, LLC, priority 2013, dated 2019).

## CC(=O)N(CCN(C(C)=O)C(C)=O)C(C)=O [TAED, N,N,N′N′-tetraacetylethylenediamine]
  pKa: 8
